# Test results taken from US6355799B1, “Substituted benzene compounds, process for their preparation, and herbicidal and defoliant compositions containing them” (ISK Americas Incorporated, priority 1997, dated 2002).
# Columns and labels:
# Assay type in all cases: in vivo
# [1] = test system: field corn (Zea mays L., var. Dekalb 535, CORN); assay: Post-emerge test, crop safety; conditions: post-emerge, 14 days after application, rating scale 0-100
# In short: (§1)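 Applied at 15–1000 g ai/ha from acetone in 187 l/ha spray volume. Post-emergence applications included 0.25% v/v non-ionic surfactant and reached plants sown 8–21 days before. Pre-emergence applications were incorporated by surface watering. Efficacy or crop damage was rated on a 0–100 scale after 14 days.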
# [2] = test system: upland rice (Oryza sp., var. Tebonnet, RICE); assay: Post-emerge test, crop safety; conditions: post-emerge, 14 days after application, rating scale 0-100
# In short: as §1
# [3] = test system: redroot pigweed (Amaranthus retroflexus, AMARE); assay: Pre-emerge test, greenhouse herbicide activity screening; conditions: rated 14 days after application, 0 = no damage, 100 = complete death
# In short: (§2)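 Sandy loam pots; pre-emerge: sown 1 d pre-spray, surface-watered after, then bottom-watered. Post-emerge: sown 8–21 d before, 2–3 leaf stage, + 0.25% v/v NIS, bottom-watered. Acetone, 187 l/ha track spray, 15–1000 g ai/ha. 0–100 injury score, day 14.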
# [4] = test system: field corn (Zea mays L., var. Dekalb 535, CORN); assay: Pre-emerge test, crop safety; conditions: rated 14 days after application, 0 = no damage, 100 = complete death
# In short: as §2
# [5] = test system: upland rice (Oryza sp., var. Tebonnet, RICE); assay: Pre-emerge test, crop safety; conditions: rated 14 days after application, 0 = no damage, 100 = complete death
# In short: as §2
# [6] = test system: barnyardgrass (Echinochloa crus-galli, ECHCG); assay: Pre-emerge test, greenhouse herbicide activity screening; conditions: rated 14 days after application, 0 = no damage, 100 = complete death
# In short: as §1
# [7] = test system: large crabgrass (Digitaria sanguinalis, DIGSA); assay: as above; conditions: rated 14 days after application, 0 = no damage, 100 = complete death
# In short: as §1
# [8] = test system: johnsongrass (Sorghum halepense, SORHA); assay: as above; conditions: rated 14 days after application, 0 = no damage, 100 = complete death
# In short: as §1
# [9] = test system: velvetleaf (Abutilon theophrasti, ABUTH); assay: as above; conditions: rated 14 days after application, 0 = no damage, 100 = complete death
# In short: as §1
# [10] = test system: sicklepod (Cassia obtusifolia, CASOB); assay: as above; conditions: rated 14 days after application, 0 = no damage, 100 = complete death
# In short: as §1
# [11] = test system: lambsquarters (Chenopodium album, CHEAL); assay: as above; conditions: rated 14 days after application, 0 = no damage, 100 = complete death
# In short: as §1
# [12] = test system: green foxtail (Setaria viridis, SETVI); assay: as above; conditions: rated 14 days after application, 0 = no damage, 100 = complete death
# In short: as §1
# [13] = test system: common ragweed (Ambrosia artemisizfolia L., AMBEL); assay: as above; conditions: rated 14 days after application, 0 = no damage, 100 = complete death
# In short: as §1
# [14] = test system: ivyleaf morningglory (Ipomoea hederacea, IPOHE); assay: as above; conditions: rated 14 days after application, 0 = no damage, 100 = complete death
# In short: as §1
# [15] = test system: barnyardgrass (Echinochloa crus-galli, ECHCG); assay: Post-emerge test, greenhouse herbicide activity screening; conditions: post-emerge, 14 days after application, rating scale 0-100
# In short: (§3)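 Fourteen days after spraying, crop and weed injury was graded visually from 0, no effect, to 100, every plant dead. Test substances were dissolved in acetone and applied at 15–1000 g ai/ha with a flat-fan nozzle. Application was either pre-emergence, one day after sowing, or post-emergence at the 2–3 leaf stage.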
# [16] = test system: large crabgrass (Digitaria sanguinalis, DIGSA); assay: as above; conditions: post-emerge, 14 days after application, rating scale 0-100
# In short: as §3
# [17] = test system: johnsongrass (Sorghum halepense, SORHA); assay: as above; conditions: post-emerge, 14 days after application, rating scale 0-100
# In short: as §3
# [18] = test system: velvetleaf (Abutilon theophrasti, ABUTH); assay: as above; conditions: post-emerge, 14 days after application, rating scale 0-100
# In short: as §3
# [19] = test system: sicklepod (Cassia obtusifolia, CASOB); assay: as above; conditions: post-emerge, 14 days after application, rating scale 0-100
# In short: as §3
# [20] = test system: lambsquarters (Chenopodium album, CHEAL); assay: as above; conditions: post-emerge, 14 days after application, rating scale 0-100
# In short: as §3
# [21] = test system: green foxtail (Setaria viridis, SETVI); assay: as above; conditions: post-emerge, 14 days after application, rating scale 0-100
# In short: as §3
# [22] = test system: redroot pigweed (Amaranthus retroflexus, AMARE); assay: as above; conditions: post-emerge, 14 days after application, rating scale 0-100
# In short: as §3
# [23] = test system: common ragweed (Ambrosia artemisizfolia L., AMBEL); assay: as above; conditions: post-emerge, 14 days after application, rating scale 0-100
# In short: as §3
# [24] = test system: ivyleaf morningglory (Ipomoea hederacea, IPOHE); assay: as above; conditions: post-emerge, 14 days after application, rating scale 0-100
# In short: as §3
smiles,measurement,setting,value
COc1ccc(C(=O)Nc2c(OC)c(Cl)cc(F)c2-n2c(=O)cc(C(F)(F)F)n(C)c2=O)cc1 [2-63],phytotoxicity rating CORN,[1]; 63 g ai/ha,50
same,phytotoxicity rating CORN,[1]; 250 g ai/ha,95
same,phytotoxicity rating RICE,[2]; 63 g ai/ha,70
same,phytotoxicity rating RICE,[2]; 250 g ai/ha,95
same,"Pre-emerge Herbicidal Activity, phytotoxicity rating (0-100), AMARE",[3]; 63 g ai/ha,100
same,"Pre-emerge Herbicidal Activity, phytotoxicity rating (0-100), AMARE",[3]; 250 g ai/ha,100
same,"Pre-emerge phytotoxicity rating (0-100), crop damage, CORN",[4]; 63 g ai/ha,60
same,"Pre-emerge phytotoxicity rating (0-100), crop damage, CORN",[4]; 250 g ai/ha,100
same,"Pre-emerge phytotoxicity rating (0-100), crop damage, RICE",[5]; 63 g ai/ha,95
same,"Pre-emerge phytotoxicity rating (0-100), crop damage, RICE",[5]; 250 g ai/ha,100
same,"Pre-emerge Herbicidal Activity, phytotoxicity rating (0-100), ECHCG",[6]; 63 g ai/ha,95
same,"Pre-emerge Herbicidal Activity, phytotoxicity rating (0-100), ECHCG",[6]; 250 g ai/ha,100
same,"Pre-emerge Herbicidal Activity, phytotoxicity rating (0-100), DIGSA",[7]; 63 g ai/ha,100
same,"Pre-emerge Herbicidal Activity, phytotoxicity rating (0-100), DIGSA",[7]; 250 g ai/ha,100
same,"Pre-emerge Herbicidal Activity, phytotoxicity rating (0-100), SORHA",[8]; 63 g ai/ha,90
same,"Pre-emerge Herbicidal Activity, phytotoxicity rating (0-100), SORHA",[8]; 250 g ai/ha,100
same,"Pre-emerge Herbicidal Activity, phytotoxicity rating (0-100), ABUTH",[9]; 63 g ai/ha,100
same,"Pre-emerge Herbicidal Activity, phytotoxicity rating (0-100), ABUTH",[9]; 250 g ai/ha,100
same,"Pre-emerge Herbicidal Activity, phytotoxicity rating (0-100), CASOB",[10]; 63 g ai/ha,100
same,"Pre-emerge Herbicidal Activity, phytotoxicity rating (0-100), CASOB",[10]; 250 g ai/ha,100
same,"Pre-emerge Herbicidal Activity, phytotoxicity rating (0-100), CHEAL",[11]; 63 g ai/ha,100
same,"Pre-emerge Herbicidal Activity, phytotoxicity rating (0-100), CHEAL",[11]; 250 g ai/ha,100
same,"Pre-emerge Herbicidal Activity, phytotoxicity rating (0-100), SETVI",[12]; 63 g ai/ha,100
same,"Pre-emerge Herbicidal Activity, phytotoxicity rating (0-100), SETVI",[12]; 250 g ai/ha,100
same,"Pre-emerge Herbicidal Activity, phytotoxicity rating (0-100), AMBEL",[13]; 63 g ai/ha,100
same,"Pre-emerge Herbicidal Activity, phytotoxicity rating (0-100), AMBEL",[13]; 250 g ai/ha,100
same,"Pre-emerge Herbicidal Activity, phytotoxicity rating (0-100), IPOHE",[14]; 63 g ai/ha,100
same,"Pre-emerge Herbicidal Activity, phytotoxicity rating (0-100), IPOHE",[14]; 250 g ai/ha,100
same,phytotoxicity rating ECHCG,[15]; 63 g ai/ha,10
same,phytotoxicity rating ECHCG,[15]; 250 g ai/ha,100
same,phytotoxicity rating DIGSA,[16]; 63 g ai/ha,0
same,phytotoxicity rating DIGSA,[16]; 250 g ai/ha,70
same,phytotoxicity rating SORHA,[17]; 63 g ai/ha,20
same,phytotoxicity rating SORHA,[17]; 250 g ai/ha,100
same,phytotoxicity rating ABUTH,[18]; 63 g ai/ha,100
same,phytotoxicity rating ABUTH,[18]; 250 g ai/ha,100
same,phytotoxicity rating CASOB,[19]; 63 g ai/ha,100
same,phytotoxicity rating CASOB,[19]; 250 g ai/ha,100
same,phytotoxicity rating CHEAL,[20]; 63 g ai/ha,99
same,phytotoxicity rating CHEAL,[20]; 250 g ai/ha,100
same,phytotoxicity rating SETVI,[21]; 63 g ai/ha,50
same,phytotoxicity rating SETVI,[21]; 250 g ai/ha,95
same,phytotoxicity rating AMARE,[22]; 63 g ai/ha,100
same,phytotoxicity rating AMARE,[22]; 250 g ai/ha,100
same,phytotoxicity rating AMBEL,[23]; 63 g ai/ha,80
same,phytotoxicity rating AMBEL,[23]; 250 g ai/ha,100
same,phytotoxicity rating IPOHE,[24]; 63 g ai/ha,100
same,phytotoxicity rating IPOHE,[24]; 250 g ai/ha,100
COc1c(Cl)cc(F)c(-n2c(=O)cc(C(F)(F)F)n(C)c2=O)c1NC(=O)c1cc([N+](=O)[O-])cc([N+](=O)[O-])c1 [2-70],phytotoxicity rating CORN,[1]; 63 g ai/ha,0
same,phytotoxicity rating CORN,[1]; 250 g ai/ha,0
same,phytotoxicity rating RICE,[2]; 63 g ai/ha,0
same,phytotoxicity rating RICE,[2]; 250 g ai/ha,0
same,"Pre-emerge Herbicidal Activity, phytotoxicity rating (0-100), AMARE",[3]; 63 g ai/ha,70
same,"Pre-emerge Herbicidal Activity, phytotoxicity rating (0-100), AMARE",[3]; 250 g ai/ha,100
same,"Pre-emerge phytotoxicity rating (0-100), crop damage, CORN",[4]; 63 g ai/ha,0
same,"Pre-emerge phytotoxicity rating (0-100), crop damage, CORN",[4]; 250 g ai/ha,0
same,"Pre-emerge phytotoxicity rating (0-100), crop damage, RICE",[5]; 63 g ai/ha,0
same,"Pre-emerge phytotoxicity rating (0-100), crop damage, RICE",[5]; 250 g ai/ha,10
same,"Pre-emerge Herbicidal Activity, phytotoxicity rating (0-100), ECHCG",[6]; 63 g ai/ha,0
same,"Pre-emerge Herbicidal Activity, phytotoxicity rating (0-100), ECHCG",[6]; 250 g ai/ha,0
same,"Pre-emerge Herbicidal Activity, phytotoxicity rating (0-100), DIGSA",[7]; 63 g ai/ha,0
same,"Pre-emerge Herbicidal Activity, phytotoxicity rating (0-100), DIGSA",[7]; 250 g ai/ha,20
same,"Pre-emerge Herbicidal Activity, phytotoxicity rating (0-100), SORHA",[8]; 63 g ai/ha,0
same,"Pre-emerge Herbicidal Activity, phytotoxicity rating (0-100), SORHA",[8]; 250 g ai/ha,0
same,"Pre-emerge Herbicidal Activity, phytotoxicity rating (0-100), ABUTH",[9]; 63 g ai/ha,100
same,"Pre-emerge Herbicidal Activity, phytotoxicity rating (0-100), ABUTH",[9]; 250 g ai/ha,90
same,"Pre-emerge Herbicidal Activity, phytotoxicity rating (0-100), CASOB",[10]; 63 g ai/ha,0
same,"Pre-emerge Herbicidal Activity, phytotoxicity rating (0-100), CASOB",[10]; 250 g ai/ha,40
same,"Pre-emerge Herbicidal Activity, phytotoxicity rating (0-100), CHEAL",[11]; 63 g ai/ha,80
same,"Pre-emerge Herbicidal Activity, phytotoxicity rating (0-100), CHEAL",[11]; 250 g ai/ha,100
same,"Pre-emerge Herbicidal Activity, phytotoxicity rating (0-100), SETVI",[12]; 63 g ai/ha,0
same,"Pre-emerge Herbicidal Activity, phytotoxicity rating (0-100), SETVI",[12]; 250 g ai/ha,60
same,"Pre-emerge Herbicidal Activity, phytotoxicity rating (0-100), AMBEL",[13]; 63 g ai/ha,0
same,"Pre-emerge Herbicidal Activity, phytotoxicity rating (0-100), AMBEL",[13]; 250 g ai/ha,30
same,"Pre-emerge Herbicidal Activity, phytotoxicity rating (0-100), IPOHE",[14]; 63 g ai/ha,0
same,"Pre-emerge Herbicidal Activity, phytotoxicity rating (0-100), IPOHE",[14]; 250 g ai/ha,60
same,phytotoxicity rating ECHCG,[15]; 63 g ai/ha,0
same,phytotoxicity rating ECHCG,[15]; 250 g ai/ha,0
same,phytotoxicity rating DIGSA,[16]; 63 g ai/ha,0
same,phytotoxicity rating DIGSA,[16]; 250 g ai/ha,0
same,phytotoxicity rating SORHA,[17]; 63 g ai/ha,0
same,phytotoxicity rating SORHA,[17]; 250 g ai/ha,0
same,phytotoxicity rating ABUTH,[18]; 63 g ai/ha,100
same,phytotoxicity rating ABUTH,[18]; 250 g ai/ha,100
same,phytotoxicity rating CASOB,[19]; 63 g ai/ha,10
same,phytotoxicity rating CASOB,[19]; 250 g ai/ha,20
same,phytotoxicity rating CHEAL,[20]; 63 g ai/ha,50
same,phytotoxicity rating CHEAL,[20]; 250 g ai/ha,70
same,phytotoxicity rating SETVI,[21]; 63 g ai/ha,20
same,phytotoxicity rating SETVI,[21]; 250 g ai/ha,0
same,phytotoxicity rating AMARE,[22]; 63 g ai/ha,70
same,phytotoxicity rating AMARE,[22]; 250 g ai/ha,70
same,phytotoxicity rating AMBEL,[23]; 63 g ai/ha,30
same,phytotoxicity rating AMBEL,[23]; 250 g ai/ha,30
same,phytotoxicity rating IPOHE,[24]; 63 g ai/ha,60
same,phytotoxicity rating IPOHE,[24]; 250 g ai/ha,60
